Measurements taken from ChEMBL document CHEMBL5236560, “Structure-Based Discovery of Potent CARM1 Inhibitors for Solid Tumor and Cancer Immunology Therapy” (J Med Chem, 2021).

How the values were obtained:
BT-549 [1] = assay: Antitumor activity against human BT-549 cells xenografted in po dosed nude mouse assessed as tumor growth inhibition at 125 mg/kg administered once daily measured after 18 days relative to control; assay type: functional; settings: BT-549, 432 h, time 18 day, read-out: TGI
[2] = Toxicity in po dosed nude mouse xenografted with human BT-549 cells assessed as change in body weight at 75 to 125 mg/kg administered once daily measured after 18 days; assay type: organism-based; settings: in vivo, 432 h, dose 75-125 mg/kg, time 18 day
A-375 [3] = assay: Antiproliferative activity against human A-375 cells assessed as cell growth inhibition incubated for 6 days by SRB assay; assay type: functional, cell-based; settings: A-375, 144 h
MDA-MB-453 = assay: Antiproliferative activity against human MDA-MB-453 cells assessed as cell growth inhibition incubated for 6 days by SRB assay; assay type: functional, cell-based; settings: MDA-MB-453, 144 h
BT-549 [4] = assay: Antiproliferative activity against human BT-549 cells assessed as cell growth inhibition incubated for 6 days by SRB assay; assay type: functional, cell-based; settings: BT-549, 144 h
[5] = target: Protein arginine N-methyltransferase 3 (Homo sapiens, UniProt O60678); assay: Inhibition of PRMT3 (unknown origin) incubated for 15 mins measured after 60 min by AlphaLISA assay
[6] = target: Protein arginine N-methyltransferase 5 (Homo sapiens, UniProt O14744); assay: Inhibition of PRMT5 (unknown origin) incubated for 15 mins measured after 60 min by AlphaLISA assay
MC-38 [7] = assay: Antitumor activity against mouse MC38 cells implanted in po dosed C57BL/6J mouse assessed as tumor growth inhibition at 100 mg/kg administered once daily measured after 32 days relative to control; assay type: functional; settings: MC-38, 768 h, time 32 day, read-out: TGI
SMMC-7721 = assay: Antiproliferative activity against human SMMC-7721 cells assessed as cell growth inhibition incubated for 6 days by SRB assay; assay type: functional, cell-based; settings: SMMC-7721, 144 h
ASPC1 [8] = assay: Induction of apoptosis in human ASPC1 cells at 15 uM measured after 96 hrs by Annexin V-FITC/PI staining based flow cytometric analysis (reference value: 6.1 %); assay type: functional
ASPC1 [9] = assay: Antiproliferative activity against human ASPC1 cells assessed as cell growth inhibition incubated for 6 days by SRB assay; assay type: functional, cell-based; settings: ASPC1, 144 h
A-375 [10] = assay: Induction of apoptosis in human A-375 cells at 15 uM measured after 96 hrs by Annexin V-FITC/PI staining based flow cytometric analysis (reference value: 5.6 %); assay type: functional
BT-549 [11] = assay: Induction of apoptosis in human BT-549 cells at 15 uM measured after 96 hrs by Annexin V-FITC/PI staining based flow cytometric analysis (reference value: 9.7 %); assay type: functional
[12] = Toxicity in po dosed nude mouse xenografted with human A-375 cells assessed as change in body weight at 100 mg/kg administered once daily measured after 21 days; assay type: organism-based; settings: in vivo, 504 h, time 21 day
MC-38 [13] = assay: Antitumor activity against mouse MC38 cells implanted in po dosed BALB/c nude mouse assessed as tumor growth inhibition at 100 mg/kg administered once daily measured after 18 days relative to control; assay type: functional; settings: MC-38, 432 h, time 18 day, read-out: TGI
[14] = target: Protein arginine N-methyltransferase 8 (Homo sapiens, UniProt Q9NR22); assay: Inhibition of PRMT8 (unknown origin) incubated for 15 mins measured after 60 min by AlphaLISA assay
BT-549 [15] = assay: Antitumor activity against human BT-549 cells xenografted in po dosed nude mouse assessed as tumor growth inhibition at 75 mg/kg administered once daily measured after 18 days relative to control; assay type: functional; settings: BT-549, 432 h, time 18 day, read-out: TGI
A-375 [16] = assay: Antitumor activity against human A-375 cells xenografted in po dosed nude mouse assessed as tumor growth inhibition at 100 mg/kg administered once daily measured after 21 days relative to control; assay type: functional; settings: A-375, 504 h, time 21 day, read-out: TGI
[17] = target: Protein arginine N-methyltransferase 1 (Homo sapiens, UniProt Q99873); assay: Inhibition of PRMT1 (unknown origin) incubated for 15 mins measured after 60 min by AlphaLISA assay
[18] = target: T1, Protein arginine N-methyltransferase 7 (Homo sapiens, UniProt Q9NVM4); assay: Inhibition of PRMT7 (unknown origin) by radioisotope based assay
T1 sequence (Q9NVM4 whole entry): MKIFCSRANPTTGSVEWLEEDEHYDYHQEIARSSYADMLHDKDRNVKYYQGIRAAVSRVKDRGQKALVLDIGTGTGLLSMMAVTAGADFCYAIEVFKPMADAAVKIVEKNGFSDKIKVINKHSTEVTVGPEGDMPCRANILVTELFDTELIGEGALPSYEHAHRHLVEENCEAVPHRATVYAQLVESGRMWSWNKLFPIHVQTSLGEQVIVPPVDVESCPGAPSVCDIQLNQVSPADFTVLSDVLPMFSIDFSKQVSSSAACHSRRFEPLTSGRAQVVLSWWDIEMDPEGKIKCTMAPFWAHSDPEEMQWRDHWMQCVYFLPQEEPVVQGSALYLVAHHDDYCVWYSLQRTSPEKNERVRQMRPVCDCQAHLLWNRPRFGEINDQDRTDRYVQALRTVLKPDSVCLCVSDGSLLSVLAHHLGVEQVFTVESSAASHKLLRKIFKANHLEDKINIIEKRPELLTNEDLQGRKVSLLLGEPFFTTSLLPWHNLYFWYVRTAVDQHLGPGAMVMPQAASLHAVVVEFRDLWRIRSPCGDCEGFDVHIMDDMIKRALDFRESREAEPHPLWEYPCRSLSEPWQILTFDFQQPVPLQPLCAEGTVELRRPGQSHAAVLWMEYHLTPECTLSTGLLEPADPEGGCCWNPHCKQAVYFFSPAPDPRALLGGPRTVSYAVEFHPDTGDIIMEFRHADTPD

[19] = target: Protein arginine N-methyltransferase 6 (Homo sapiens, UniProt Q96LA8); assay: Inhibition of PRMT6 (unknown origin) incubated for 15 mins measured after 60 min by AlphaLISA assay
Sequence of Protein arginine N-methyltransferase 6 (Q96LA8 whole entry): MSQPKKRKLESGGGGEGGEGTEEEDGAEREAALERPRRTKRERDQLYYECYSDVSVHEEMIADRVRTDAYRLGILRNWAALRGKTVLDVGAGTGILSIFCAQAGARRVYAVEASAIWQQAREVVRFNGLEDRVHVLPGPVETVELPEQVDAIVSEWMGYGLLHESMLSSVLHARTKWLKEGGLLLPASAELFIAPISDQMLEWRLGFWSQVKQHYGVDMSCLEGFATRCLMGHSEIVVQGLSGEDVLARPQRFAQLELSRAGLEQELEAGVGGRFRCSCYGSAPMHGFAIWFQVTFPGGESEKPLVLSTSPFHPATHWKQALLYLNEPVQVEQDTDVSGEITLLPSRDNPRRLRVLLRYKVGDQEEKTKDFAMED

Sequence of Protein arginine N-methyltransferase 3 (O60678 whole entry): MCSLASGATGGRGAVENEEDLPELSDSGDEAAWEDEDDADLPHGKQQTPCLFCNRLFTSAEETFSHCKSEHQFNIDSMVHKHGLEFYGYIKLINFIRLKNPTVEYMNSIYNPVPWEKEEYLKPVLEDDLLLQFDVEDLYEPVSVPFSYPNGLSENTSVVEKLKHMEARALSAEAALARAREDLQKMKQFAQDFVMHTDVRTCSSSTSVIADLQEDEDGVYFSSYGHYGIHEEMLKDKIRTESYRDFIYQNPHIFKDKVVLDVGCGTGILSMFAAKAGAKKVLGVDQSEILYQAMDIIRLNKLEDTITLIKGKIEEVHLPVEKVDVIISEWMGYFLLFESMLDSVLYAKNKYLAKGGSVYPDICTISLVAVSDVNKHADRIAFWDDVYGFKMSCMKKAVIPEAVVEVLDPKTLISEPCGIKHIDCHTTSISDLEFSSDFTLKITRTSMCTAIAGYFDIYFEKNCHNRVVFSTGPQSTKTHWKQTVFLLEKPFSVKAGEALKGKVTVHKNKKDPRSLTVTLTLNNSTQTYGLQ
Sequence of Protein arginine N-methyltransferase 8 (Q9NR22 whole entry): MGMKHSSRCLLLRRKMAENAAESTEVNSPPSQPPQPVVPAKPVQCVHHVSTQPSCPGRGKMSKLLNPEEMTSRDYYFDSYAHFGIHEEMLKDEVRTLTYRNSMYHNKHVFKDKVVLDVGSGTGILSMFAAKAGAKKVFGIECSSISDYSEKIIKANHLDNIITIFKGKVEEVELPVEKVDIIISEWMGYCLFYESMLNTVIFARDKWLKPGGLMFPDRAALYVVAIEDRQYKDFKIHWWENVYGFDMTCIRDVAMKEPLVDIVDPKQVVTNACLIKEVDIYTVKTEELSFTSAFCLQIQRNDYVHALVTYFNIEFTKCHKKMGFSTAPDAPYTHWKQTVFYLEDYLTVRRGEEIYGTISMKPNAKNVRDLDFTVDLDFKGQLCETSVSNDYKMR
Sequence of Protein arginine N-methyltransferase 1 (Q99873 whole entry): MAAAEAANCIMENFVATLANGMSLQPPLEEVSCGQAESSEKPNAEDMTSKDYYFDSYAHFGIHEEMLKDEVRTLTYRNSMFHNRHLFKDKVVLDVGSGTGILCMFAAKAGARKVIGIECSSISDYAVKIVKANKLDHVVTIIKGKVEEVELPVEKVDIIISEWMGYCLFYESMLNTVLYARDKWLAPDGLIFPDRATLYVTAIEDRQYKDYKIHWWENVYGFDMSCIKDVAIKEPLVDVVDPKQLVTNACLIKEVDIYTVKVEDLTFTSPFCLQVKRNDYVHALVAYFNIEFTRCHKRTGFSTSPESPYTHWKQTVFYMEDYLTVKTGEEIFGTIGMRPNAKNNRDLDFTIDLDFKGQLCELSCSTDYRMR
Sequence of Protein arginine N-methyltransferase 5 (O14744 whole entry): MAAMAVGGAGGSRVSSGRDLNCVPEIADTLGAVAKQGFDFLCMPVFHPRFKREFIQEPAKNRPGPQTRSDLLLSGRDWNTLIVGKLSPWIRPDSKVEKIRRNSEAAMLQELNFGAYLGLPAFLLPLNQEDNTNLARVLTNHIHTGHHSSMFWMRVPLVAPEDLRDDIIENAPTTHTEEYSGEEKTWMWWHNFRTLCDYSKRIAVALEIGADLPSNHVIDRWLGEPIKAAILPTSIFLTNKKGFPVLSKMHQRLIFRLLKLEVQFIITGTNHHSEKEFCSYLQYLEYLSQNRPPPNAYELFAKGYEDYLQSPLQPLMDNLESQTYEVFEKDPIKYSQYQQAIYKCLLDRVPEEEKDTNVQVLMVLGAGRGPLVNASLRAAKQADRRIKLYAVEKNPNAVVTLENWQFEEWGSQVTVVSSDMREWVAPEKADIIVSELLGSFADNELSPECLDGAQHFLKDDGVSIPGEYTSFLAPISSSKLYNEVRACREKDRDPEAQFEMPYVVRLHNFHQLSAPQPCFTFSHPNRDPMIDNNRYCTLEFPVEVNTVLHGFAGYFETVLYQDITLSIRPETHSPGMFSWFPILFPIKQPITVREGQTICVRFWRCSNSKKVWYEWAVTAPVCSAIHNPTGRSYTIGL

IC50 (A-375 [3]): 5.9 µM
IC50 (MDA-MB-453): 5.7 µM
IC50 (BT-549 [4]): 8.8 µM
IC50 [5]: > 1 µM
IC50 [6]: > 50 µM
IC50 (SMMC-7721): 5.5 µM
IC50 (ASPC1 [9]): 12.3 µM
IC50 [14]: 0.92 µM
IC50 [17]: > 1 µM
IC50 [18]: > 50 µM
IC50 [19]: 0.49 µM
SMILES: CNCCNCc1cccc(-c2nc(Nc3ccccc3)c(C)c(-c3c(C)noc3C)n2)c1
inhibition in vivo at 125 mg/kg (BT-549 [1]): 61.5%
Activity [2]: Non-Toxic
inhibition in vivo at 100 mg/kg (MC-38 [7]): 79.6%
Activity (ASPC1 [8]): 17.2%
Activity (A-375 [10]): 44%
Activity (BT-549 [11]): 46.1%
Activity [12]: Non-Toxic
inhibition in vivo at 100 mg/kg (MC-38 [13]): 23.3%
inhibition in vivo at 75 mg/kg (BT-549 [15]): 38%
inhibition in vivo at 100 mg/kg (A-375 [16]): 69%
